# Patent publication US8476288B2, “Salts 756” (AstraZeneca AB, priority 2009, dated 2013)
# Where a name gives a salt, the structure may show the parent alone.
# Experiments:
# Assay type in all cases: physicochemical
# [1] = Salt/lactose monohydrate blend storage stability at 40° C. and 75% relative humidity; conditions: mixtures of salt with lactose monohydrate; 40° C./75% relative humidity
# Method: The storage stability of blends of lactose monohydrate with the mono-saccharin, mono-benzoic acid, difumaric acid and disaccharin salts of Compound (I) when stored at is 40° C. and 75% relative humidity was measured as follows.
# Approximately 5 grams of each salt were micronised using a 1″ jet mill (MC One, Jetpharma, Balerna, Switzerland) with Nitrogen as the flow gas.
# 10 g of bulk lactose blend of each salt was prepared by the following method:
# Micronised lactose monohydrate (9800 mg) was added to a 60 ml clear glass bottle. To this was added the micronised salt of compound (I) (200 mg) and a rubber stopper and aluminium screw cap used to close the bottle.
# The bottle containing the salt and lactose monohydrate was placed in a trembling blender (Turbula T2C, W. Bachofen, Basel, Switzerland) blending vessel and the mixture blended for 10 minutes on speed 1 (30 rpm). A sample (2 g) of the lactose/salt blend was removed. The remaining of lactose/salt blend (8 g) was placed in a stability suite (controlled environmental conditions) at 40° C./75% relative humidity. The sample was temporarily removed from the storage facility for analysis. For each analysis 50 mg of the lactose/salt blend were dissolved in the sample diluents and analysed by HPLC for the compound of Formula (A) as described above in Example 23.
# [2] = Salt storage stability at 40° C. and 75% relative humidity (HPLC for acid degradation product of Formula (A)); conditions: stored under high temperature and humidity, for example 40° C. and 75% relative humidity
# Method: The stability of the stability of the mono-saccharin (2 different batches), mono-trans-cinnamic acid, mono-succinic acid, mono-benzoic acid, difumaric acid, dixinafoic acid (di-1-hydroxy-2-naphthoic acid) and disaccharin salts of Compound (I) when stored at 40° C. and 75% relative humidity was measured as follows.
# Approximately 30 mg of each salt was weighted into 4 mL screw cap vials, the vials closed and stored at 40° C./75% relative humidity with constant control of the environmental conditions. For every time point the samples were removed from the storage facility and analysed by HPLC for the presence of the acid degradation product of the Formula (A): […]
# The HPLC analysis was performed using the following method:
# A sample solution was prepared at approximately 0.1 to 0.2 mg/mL in the sample diluent, 0.03% trifluoroacetic acid in 50/50 v/v acetonitrile/water, using sonication as required. The following chromatographic conditions were applied: […]
# [3] = Dynamic vapour sorption (DVS) hygroscopicity; conditions: at 80% relative humidity, weight change from 0% RH to 80% RH in second DVS cycle
# Method: DVS analysis was performed using an SMS Dynamic Vapour Sorption DVS-Advantage instrument. The solid sample (approximately 1-5 mg) was placed into a platinum sample holder and the weight of the sample was recorded during a dual cycle step method (40 to 90 to 0 to 90 to 0% relative humidity (RH), in steps of 10% RH).
# The responses of the mono-fumaric acid salt and the difumaric acid salt (Examples 15 and 19) to changes in humidity were investigated using DVS. The hygroscopicity was calculated as the relative change in weight of the sample between 0% RH at the start of the second cycle and 80% RH during the increase of humidity in the second cycle.
# The hygroscopicity of a sample is dependent on factors in addition to the inherent properties of the pure solid form itself, for example the purity and the crystallinity of the sample will have some impact on the result.
smiles,measurement,setting,value
CCCCCNc1nc(N)nc(C)c1Cc1ccc(CC(=O)OCCCCN(C)C)cc1 [disaccharin salt of Compound (I)],stability in the presence of lactose monohydrate,[1],particularly stable in the presence of lactose monohydrate
same,solid state chemical stability on storage,[2],good solid state chemical stability
"CCCCCNc1nc(N)nc(C)c1Cc1ccc(CC(=O)OCCCCN(C)C)cc1.O=C(O)/C=C/C(=O)O [Example 15, 4-(Dimethylamino)butyl 2-(4-((2-amino-4-methyl-6-(pentylamino)pyrimidin-5-yl)methyl)phenyl)acetate fumaric acid salt]",moisture uptake (hygroscopicity),[3],more than 2 % w/w
"CCCCCNc1nc(N)nc(C)c1Cc1ccc(CC(=O)OCCCCN(C)C)cc1.O=C(O)c1ccccc1 [Example 1, 4-(Dimethylamino)butyl 2-(4-((2-amino-4-methyl-6-(pentylamino)pyrimidin-5-yl)methyl)phenyl)acetate benzoic acid salt]",solid state chemical stability on storage,[2],good solid state chemical stability
"CCCCCNc1nc(N)nc(C)c1Cc1ccc(CC(=O)OCCCCN(C)C)cc1.O=C(O)/C=C/C(=O)O [Example 19, 4-(Dimethylamino)butyl 2-(4-((2-amino-4-methyl-6-(pentylamino)pyrimidin-5-yl)methyl)phenyl)acetate difumaric acid salt]",stability in the presence of lactose monohydrate,[1],particularly stable in the presence of lactose monohydrate
same,solid state chemical stability on storage,[2],good solid state chemical stability
same,moisture uptake (hygroscopicity),[3]; listed as difumaric acid salt of Compound (I),0.2-2 % w/w
